Tests used:
Aurora kinase B-A = Aurora kinase B-A (Xenopus laevis, UniProt Q6DE08); assay: Inhibition of Xenopus laevis Aurora kinase B/INCEP complex using gamma-[32P]ATP incubated for 1 hr by autoradiography
Aurora kinase B = Aurora kinase B (Homo sapiens, UniProt Q96GD4); assay: Inhibition of human Aurora kinase B/INCEP complex expressed in Escherichia coli BL21 (DE3) using gamma-[32P]ATP incubated for 1 hr by autoradiography
Aurora kinase A = molecular target: T1, Aurora kinase A (Homo sapiens, UniProt O14965)
T1 sequence (O14965 whole entry): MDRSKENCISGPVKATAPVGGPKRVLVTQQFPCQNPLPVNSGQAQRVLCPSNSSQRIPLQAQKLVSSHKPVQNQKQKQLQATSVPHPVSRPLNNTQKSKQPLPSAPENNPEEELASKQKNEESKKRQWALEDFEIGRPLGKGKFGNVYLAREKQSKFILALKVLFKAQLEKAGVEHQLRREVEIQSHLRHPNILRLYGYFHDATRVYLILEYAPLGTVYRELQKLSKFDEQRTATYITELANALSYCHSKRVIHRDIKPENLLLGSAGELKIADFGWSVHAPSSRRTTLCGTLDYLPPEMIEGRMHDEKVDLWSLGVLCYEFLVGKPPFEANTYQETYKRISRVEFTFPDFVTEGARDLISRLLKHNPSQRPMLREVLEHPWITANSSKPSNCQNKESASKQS
Description: Inhibition of human Aurora kinase A/TPX2 complex using gamma-[32P]ATP incubated for 1 hr by autoradiography

Aurora kinase B-A, sequence (Q6DE08 whole entry): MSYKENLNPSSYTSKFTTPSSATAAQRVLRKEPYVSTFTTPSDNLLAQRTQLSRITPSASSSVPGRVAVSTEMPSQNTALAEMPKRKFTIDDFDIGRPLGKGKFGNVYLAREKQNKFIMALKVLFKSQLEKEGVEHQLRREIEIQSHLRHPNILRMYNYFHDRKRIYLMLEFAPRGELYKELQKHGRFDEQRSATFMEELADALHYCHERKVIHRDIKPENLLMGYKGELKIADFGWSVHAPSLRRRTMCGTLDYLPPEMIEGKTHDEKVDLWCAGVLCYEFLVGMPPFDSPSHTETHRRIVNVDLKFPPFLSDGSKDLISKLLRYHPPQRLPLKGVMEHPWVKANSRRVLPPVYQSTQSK
Aurora kinase B, sequence (Q96GD4 whole entry): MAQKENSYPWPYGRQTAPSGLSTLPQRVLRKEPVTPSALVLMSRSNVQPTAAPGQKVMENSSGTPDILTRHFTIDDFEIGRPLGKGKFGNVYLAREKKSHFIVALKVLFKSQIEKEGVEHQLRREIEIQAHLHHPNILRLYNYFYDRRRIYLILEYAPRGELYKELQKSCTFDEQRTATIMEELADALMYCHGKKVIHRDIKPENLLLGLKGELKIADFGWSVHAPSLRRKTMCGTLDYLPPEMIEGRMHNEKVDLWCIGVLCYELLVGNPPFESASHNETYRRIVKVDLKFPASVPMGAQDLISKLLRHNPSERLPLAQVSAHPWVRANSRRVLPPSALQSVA

| IC50 (Aurora kinase B-A) [nM] | IC50 (Aurora kinase B) [nM] | IC50 (Aurora kinase A) [nM] | Structure (SMILES) |
| --- | --- | --- | --- |
| 45 | – | – | COc1cc2c(Nc3ccc(NC(=O)c4ccccc4)cc3)ncnc2cc1OCCCN1CCOCC1 |
| 3 | 3 | 11 | CCS(=O)(=O)Nc1ccc2c(c1)/C(=C(/Nc1ccc(CN3CCCCC3)cc1)c1ccccc1)C(=O)N2 [HESPERADIN] |
| 19 | – | – | Cc1cc(Nc2cc(N3CCN(C)CC3)nc(Sc3ccc(NC(=O)C4CC4)cc3)n2)[nH]n1 [TOZASERTIB] |

Reference: ChEMBL document CHEMBL2176926, “Crystal structure of human aurora B in complex with INCENP and VX-680” (J Med Chem, 2012)
